In this assay the target is Opiate receptor. In words: Opiate receptor binding (IC50) by the method of Pasternak et al. using tritiated naloxone, absence of sodium ions. The conditions noted are these: method indicated in Example 1 (tritiated naloxone, absence of sodium ions, 4° C., pH 7.4); Table 2. On the procedure: *Method of Pasternak, G. W. et al., Molecular Pharmacology, 11, 340-351
(1975) using tritiated naloxone and in the absence of sodium ions; assays
trishydrochloric acid buffer (50 mM, pH 7.4).
(§1) The opiate receptor IC50 (M) was ascertained by the method indicated in Example 1.
as §1

The substance H.Try.Gly.Gly.Phe.D-Met.OMe HCl [(Y)] showed an IC50 of 0.06 µM.

Usually IC50 stands for the concentration at which inhibition is half-maximal.

(Values after US4231923A, “Assay method and compounds” (Burroughs Wellcome Co., priority 1977, dated 1980).)
